The values that follow come from ChEMBL document CHEMBL1144455, “A small molecule-kinase interaction map for clinical kinase inhibitors” (Nat Biotechnol, 2005).

SMILES strings stand for the structures.

In assay [1] the target is Dual specificity protein kinase CLK2 (Homo sapiens, UniProt P49760).
The target of assay [2] is Dual specificity protein kinase CLK4 (Homo sapiens, UniProt Q9HAZ1).
In assay [3] the target is Mitogen-activated protein kinase 10 (Homo sapiens, UniProt P53779).
In assay [4] the target is STE20-like serine/threonine-protein kinase (Homo sapiens, UniProt Q9H2G2).
The target in assay [5] is Epidermal growth factor receptor (Homo sapiens, UniProt P00533).
Assay [6] addresses T1, Cyclin-G-associated kinase (Homo sapiens, UniProt O14976).
T1 sequence (O14976 whole entry): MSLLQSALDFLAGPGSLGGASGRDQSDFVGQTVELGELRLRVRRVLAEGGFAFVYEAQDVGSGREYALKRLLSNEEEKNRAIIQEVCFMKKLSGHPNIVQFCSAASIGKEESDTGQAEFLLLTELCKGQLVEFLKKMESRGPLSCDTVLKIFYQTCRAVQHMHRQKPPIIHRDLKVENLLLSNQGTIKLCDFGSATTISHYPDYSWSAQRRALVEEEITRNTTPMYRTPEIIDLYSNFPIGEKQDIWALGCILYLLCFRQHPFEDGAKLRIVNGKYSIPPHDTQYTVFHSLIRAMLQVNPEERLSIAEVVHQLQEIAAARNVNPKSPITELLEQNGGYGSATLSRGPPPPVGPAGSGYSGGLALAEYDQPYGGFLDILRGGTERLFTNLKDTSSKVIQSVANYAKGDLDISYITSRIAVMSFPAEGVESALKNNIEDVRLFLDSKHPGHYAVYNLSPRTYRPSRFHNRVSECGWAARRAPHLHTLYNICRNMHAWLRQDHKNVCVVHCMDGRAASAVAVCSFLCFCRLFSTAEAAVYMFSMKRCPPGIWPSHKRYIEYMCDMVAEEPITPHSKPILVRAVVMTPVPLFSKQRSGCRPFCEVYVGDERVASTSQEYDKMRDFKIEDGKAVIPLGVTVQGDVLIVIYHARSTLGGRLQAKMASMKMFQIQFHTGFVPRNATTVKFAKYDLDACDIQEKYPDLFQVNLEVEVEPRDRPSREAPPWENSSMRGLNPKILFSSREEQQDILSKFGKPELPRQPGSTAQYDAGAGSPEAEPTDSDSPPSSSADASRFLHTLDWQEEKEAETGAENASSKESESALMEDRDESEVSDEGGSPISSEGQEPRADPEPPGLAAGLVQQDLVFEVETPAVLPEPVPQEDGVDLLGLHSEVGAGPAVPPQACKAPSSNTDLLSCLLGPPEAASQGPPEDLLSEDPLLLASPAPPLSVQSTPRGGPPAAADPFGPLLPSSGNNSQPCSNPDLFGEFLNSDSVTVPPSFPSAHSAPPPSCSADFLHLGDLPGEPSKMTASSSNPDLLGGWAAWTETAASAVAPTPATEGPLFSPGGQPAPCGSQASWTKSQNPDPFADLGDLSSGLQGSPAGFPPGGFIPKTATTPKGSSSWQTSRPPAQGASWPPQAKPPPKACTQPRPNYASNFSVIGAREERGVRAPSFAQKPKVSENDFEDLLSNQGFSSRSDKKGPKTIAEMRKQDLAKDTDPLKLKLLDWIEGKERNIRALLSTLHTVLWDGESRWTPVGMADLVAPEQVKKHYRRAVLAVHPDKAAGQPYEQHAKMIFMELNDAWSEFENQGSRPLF

For assay [7], the target named is T2, Serine/threonine-protein kinase 3 (Mus musculus, UniProt Q9JI10).
T2 sequence (Q9JI10 whole entry): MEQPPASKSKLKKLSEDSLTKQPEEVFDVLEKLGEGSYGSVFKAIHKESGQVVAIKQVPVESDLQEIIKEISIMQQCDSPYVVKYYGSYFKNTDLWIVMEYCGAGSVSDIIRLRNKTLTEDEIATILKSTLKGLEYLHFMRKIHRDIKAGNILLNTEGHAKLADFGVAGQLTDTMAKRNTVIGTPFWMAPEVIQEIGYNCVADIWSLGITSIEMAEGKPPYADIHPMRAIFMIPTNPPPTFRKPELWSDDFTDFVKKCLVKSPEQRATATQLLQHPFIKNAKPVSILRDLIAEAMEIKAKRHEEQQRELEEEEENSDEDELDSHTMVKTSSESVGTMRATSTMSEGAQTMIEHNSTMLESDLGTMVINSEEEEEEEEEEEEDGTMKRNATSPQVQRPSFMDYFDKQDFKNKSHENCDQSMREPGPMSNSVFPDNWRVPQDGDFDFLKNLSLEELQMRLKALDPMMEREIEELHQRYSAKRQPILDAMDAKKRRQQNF

In assay [8] the target is Tyrosine-protein kinase ABL1 (Homo sapiens, UniProt P00519, E255K).
Assay [9] addresses Tyrosine-protein kinase Lck (Homo sapiens, UniProt P06239).
Assay [10] addresses Tyrosine-protein kinase ABL1 (Homo sapiens, UniProt P00519, M351T).
In assay [11] the target is Tyrosine-protein kinase ABL1 (Homo sapiens, UniProt P00519, Y253F).
For assay [12], the target named is T3, Mitogen-activated protein kinase 12 (Homo sapiens, UniProt P53778).
T3 sequence (P53778 whole entry): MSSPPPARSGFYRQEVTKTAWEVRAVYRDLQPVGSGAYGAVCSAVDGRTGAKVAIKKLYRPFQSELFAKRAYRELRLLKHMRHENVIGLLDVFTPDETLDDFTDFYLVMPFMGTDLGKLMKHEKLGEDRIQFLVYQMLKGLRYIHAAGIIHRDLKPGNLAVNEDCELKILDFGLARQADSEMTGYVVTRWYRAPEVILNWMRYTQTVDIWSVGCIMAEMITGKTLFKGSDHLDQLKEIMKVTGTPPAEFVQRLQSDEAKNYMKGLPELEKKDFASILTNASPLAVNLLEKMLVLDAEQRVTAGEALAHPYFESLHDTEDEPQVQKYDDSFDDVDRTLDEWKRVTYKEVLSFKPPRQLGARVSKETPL

Sequence of STE20-like serine/threonine-protein kinase (Q9H2G2 whole entry): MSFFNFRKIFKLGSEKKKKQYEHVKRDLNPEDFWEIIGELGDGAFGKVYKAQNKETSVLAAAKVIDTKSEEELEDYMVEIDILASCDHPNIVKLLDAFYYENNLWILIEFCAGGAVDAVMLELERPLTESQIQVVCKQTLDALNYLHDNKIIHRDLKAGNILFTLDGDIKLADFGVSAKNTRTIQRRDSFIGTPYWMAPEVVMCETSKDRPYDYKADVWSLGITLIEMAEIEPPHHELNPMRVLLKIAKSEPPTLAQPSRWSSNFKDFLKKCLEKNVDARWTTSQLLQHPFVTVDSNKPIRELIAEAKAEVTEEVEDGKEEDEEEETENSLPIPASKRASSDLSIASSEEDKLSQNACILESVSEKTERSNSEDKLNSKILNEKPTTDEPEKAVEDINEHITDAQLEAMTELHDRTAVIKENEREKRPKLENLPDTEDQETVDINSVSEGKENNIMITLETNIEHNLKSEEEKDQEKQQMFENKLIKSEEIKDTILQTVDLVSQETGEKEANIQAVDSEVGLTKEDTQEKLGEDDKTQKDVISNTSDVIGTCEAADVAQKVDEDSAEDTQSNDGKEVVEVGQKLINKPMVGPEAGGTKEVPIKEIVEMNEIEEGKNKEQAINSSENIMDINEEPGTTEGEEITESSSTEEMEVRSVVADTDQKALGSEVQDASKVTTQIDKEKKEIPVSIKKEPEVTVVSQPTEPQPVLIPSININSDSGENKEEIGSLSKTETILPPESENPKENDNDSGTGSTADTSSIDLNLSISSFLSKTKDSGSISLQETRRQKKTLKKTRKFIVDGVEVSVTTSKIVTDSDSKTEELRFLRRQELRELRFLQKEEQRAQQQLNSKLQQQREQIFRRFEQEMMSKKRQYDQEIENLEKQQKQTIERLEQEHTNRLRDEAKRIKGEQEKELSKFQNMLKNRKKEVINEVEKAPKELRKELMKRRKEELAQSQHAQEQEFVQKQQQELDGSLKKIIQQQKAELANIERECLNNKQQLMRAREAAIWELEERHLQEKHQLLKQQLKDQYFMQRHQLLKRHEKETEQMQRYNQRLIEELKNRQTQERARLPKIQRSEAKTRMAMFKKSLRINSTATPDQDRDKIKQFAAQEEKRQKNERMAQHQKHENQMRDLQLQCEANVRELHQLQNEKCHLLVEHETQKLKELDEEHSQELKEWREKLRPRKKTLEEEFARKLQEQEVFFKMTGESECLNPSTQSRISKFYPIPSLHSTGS
Sequence of Dual specificity protein kinase CLK2 (P49760 whole entry): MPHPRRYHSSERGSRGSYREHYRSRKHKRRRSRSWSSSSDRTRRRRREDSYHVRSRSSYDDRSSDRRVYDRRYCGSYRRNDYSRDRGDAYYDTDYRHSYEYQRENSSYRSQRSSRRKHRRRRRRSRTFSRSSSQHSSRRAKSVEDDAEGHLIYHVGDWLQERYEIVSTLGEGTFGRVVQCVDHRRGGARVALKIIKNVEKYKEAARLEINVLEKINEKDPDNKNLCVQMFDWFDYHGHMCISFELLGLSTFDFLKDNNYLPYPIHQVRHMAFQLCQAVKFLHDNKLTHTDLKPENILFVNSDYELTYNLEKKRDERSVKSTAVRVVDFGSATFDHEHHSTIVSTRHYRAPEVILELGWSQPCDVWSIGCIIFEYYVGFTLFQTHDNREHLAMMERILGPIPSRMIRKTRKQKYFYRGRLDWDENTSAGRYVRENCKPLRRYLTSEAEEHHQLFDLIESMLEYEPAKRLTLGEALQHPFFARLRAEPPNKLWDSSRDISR
Sequence of Tyrosine-protein kinase Lck (P06239 whole entry): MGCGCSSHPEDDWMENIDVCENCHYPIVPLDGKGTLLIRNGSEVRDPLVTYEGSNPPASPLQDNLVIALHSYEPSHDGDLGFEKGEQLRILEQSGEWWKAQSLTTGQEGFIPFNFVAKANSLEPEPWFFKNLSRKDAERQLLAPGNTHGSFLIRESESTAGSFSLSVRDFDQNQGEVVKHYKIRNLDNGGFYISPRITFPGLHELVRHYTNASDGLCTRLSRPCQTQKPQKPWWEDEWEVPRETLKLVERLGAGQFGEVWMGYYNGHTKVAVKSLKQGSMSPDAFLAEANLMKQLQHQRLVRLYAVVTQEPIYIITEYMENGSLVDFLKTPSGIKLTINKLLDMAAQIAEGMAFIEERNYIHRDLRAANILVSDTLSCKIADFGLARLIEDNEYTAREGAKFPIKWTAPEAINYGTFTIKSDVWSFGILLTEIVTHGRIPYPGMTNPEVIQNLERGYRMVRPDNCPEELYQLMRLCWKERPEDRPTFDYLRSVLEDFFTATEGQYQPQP
Sequence of Dual specificity protein kinase CLK4 (Q9HAZ1 whole entry): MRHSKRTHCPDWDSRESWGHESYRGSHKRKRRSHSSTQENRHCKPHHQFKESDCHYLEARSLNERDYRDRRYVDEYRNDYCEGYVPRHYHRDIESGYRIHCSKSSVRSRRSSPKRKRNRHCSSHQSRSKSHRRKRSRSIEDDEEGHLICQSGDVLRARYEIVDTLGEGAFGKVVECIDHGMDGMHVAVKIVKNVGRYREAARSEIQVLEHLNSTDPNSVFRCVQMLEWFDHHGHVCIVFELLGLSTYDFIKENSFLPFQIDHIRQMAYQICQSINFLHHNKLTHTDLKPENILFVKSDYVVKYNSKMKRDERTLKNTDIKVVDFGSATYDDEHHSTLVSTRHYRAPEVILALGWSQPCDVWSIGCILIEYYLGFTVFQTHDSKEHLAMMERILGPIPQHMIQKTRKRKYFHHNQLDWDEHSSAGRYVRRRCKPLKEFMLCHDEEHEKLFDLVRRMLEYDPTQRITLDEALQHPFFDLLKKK
Sequence of Epidermal growth factor receptor (P00533 whole entry): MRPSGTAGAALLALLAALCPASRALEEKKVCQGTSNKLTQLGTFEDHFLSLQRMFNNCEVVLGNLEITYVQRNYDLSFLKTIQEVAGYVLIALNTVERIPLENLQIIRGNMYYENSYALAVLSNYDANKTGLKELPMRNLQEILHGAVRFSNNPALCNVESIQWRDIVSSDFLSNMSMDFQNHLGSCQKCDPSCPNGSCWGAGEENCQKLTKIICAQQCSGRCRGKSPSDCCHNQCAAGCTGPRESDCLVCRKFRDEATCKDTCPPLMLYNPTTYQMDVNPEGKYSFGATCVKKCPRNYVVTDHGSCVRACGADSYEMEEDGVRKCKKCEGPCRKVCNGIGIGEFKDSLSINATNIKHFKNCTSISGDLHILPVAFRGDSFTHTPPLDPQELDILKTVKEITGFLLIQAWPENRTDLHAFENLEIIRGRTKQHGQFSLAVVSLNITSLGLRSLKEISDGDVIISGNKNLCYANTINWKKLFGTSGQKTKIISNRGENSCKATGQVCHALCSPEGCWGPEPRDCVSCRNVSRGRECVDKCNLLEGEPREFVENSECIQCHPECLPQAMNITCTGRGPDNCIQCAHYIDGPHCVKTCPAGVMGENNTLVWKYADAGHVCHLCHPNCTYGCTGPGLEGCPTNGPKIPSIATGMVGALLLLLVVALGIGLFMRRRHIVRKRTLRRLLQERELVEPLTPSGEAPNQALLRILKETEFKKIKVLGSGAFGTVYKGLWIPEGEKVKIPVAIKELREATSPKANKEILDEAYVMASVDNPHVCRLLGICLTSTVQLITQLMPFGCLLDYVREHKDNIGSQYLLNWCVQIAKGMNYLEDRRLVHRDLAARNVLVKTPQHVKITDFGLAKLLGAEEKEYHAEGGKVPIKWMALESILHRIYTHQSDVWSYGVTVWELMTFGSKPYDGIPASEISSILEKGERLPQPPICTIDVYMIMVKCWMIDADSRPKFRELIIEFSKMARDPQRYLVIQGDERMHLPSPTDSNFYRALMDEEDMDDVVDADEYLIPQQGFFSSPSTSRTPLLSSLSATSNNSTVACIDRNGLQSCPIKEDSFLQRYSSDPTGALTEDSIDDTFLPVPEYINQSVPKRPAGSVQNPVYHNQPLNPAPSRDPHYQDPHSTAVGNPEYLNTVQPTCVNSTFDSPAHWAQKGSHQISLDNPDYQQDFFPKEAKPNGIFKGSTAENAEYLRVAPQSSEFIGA
Sequence of Mitogen-activated protein kinase 10 (P53779 whole entry): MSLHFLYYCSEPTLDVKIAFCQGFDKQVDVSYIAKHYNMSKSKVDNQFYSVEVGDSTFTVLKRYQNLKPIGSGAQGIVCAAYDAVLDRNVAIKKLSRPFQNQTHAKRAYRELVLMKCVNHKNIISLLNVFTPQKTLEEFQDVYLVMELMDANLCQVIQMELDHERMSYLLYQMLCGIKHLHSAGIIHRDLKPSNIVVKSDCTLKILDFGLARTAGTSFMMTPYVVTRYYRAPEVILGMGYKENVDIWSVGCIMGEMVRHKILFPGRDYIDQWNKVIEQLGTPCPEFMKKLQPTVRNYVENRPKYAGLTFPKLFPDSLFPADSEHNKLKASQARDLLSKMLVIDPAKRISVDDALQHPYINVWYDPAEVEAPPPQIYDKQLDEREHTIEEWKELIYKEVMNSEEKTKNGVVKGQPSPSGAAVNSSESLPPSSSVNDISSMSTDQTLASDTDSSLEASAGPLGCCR

In the case of `C#Cc1cccc(Nc2ncnc3cc(OCCOC)c(OCCOC)cc23)c1` [ERLOTINIB], the Kd result in [1], in assay [2] and in [3] was “Not Active” each time.
For the molecule `Cc1ccc(NC(=O)c2ccc(CN3CCN(C)CC3)cc2)cc1Nc1nccc(-c2cccnc2)n1` [IMATINIB], the Kd result in assay [4] and in assay [5] was “Not Active” in each case.
For `O=c1ncn2nc(Sc3ccc(F)cc3F)ccc2c1-c1c(Cl)cccc1Cl` [NEFLAMAPIMOD], the Kd entry in assay [4], in assay [1], in assay [6], in assay [2], in assay [3] and in [5] was “Not Active” in each case.
On to `CCOc1cc2ncc(C#N)c(Nc3ccc(F)c(Cl)c3)c2cc1NC(=O)/C=C/CN(C)C` [PELITINIB], for which the Kd – broadly, the constant that tells how readily two partners part at equilibrium – was 1100 nM in assay [7] and “Not Active” in assay [3].
With `Oc1ccc(-c2nc(-c3ccc(F)cc3)c(-c3ccncc3)[nH]2)cc1` [SB-202190], the Kd result in assay [4], in assay [8], in assay [1], in assay [9], in assay [10] and in [2] was “Not Active” in each case. For the same molecule, in [11], the Kd entry is “Not Active”.
`C[S+]([O-])c1ccc(-c2nc(-c3ccc(F)cc3)c(-c3ccncc3)[nH]2)cc1` (stereo not drawn) [SB-203580]: the Kd result in assay [8] was “Not Active”; in assay [12] it was 1700 nM; in assay [1] it was “Not Active”; in assay [9] it was “Not Active”; in [10], “Not Active”; in assay [2] it was “Not Active”. Also, in assay [11], the Kd entry was “Not Active”.
For `CC[C@H](CO)Nc1nc(NCc2ccccc2)c2ncn(C(C)C)c2n1` [SELICICLIB], the Kd result in [4], in assay [8], in [9], in [6], in assay [10] and in assay [3] was “Not Active” throughout. In addition, the Kd result in assay [5] and in assay [11] was “Not Active” throughout.
Turning to `Oc1c2ccccc2c2c3c(cccc13)N=N2` [SP-600125], the Kd entry in assay [8] was “Not Active”; in assay [12], 2400 nM; in [9], “Not Active”; in [10], “Not Active”; in [7], 220 nM; in [11], “Not Active”.
For the molecule `COc1cc2c(N3CCN(C(=O)Nc4ccc(OC(C)C)cc4)CC3)ncnc2cc1OCCCN1CCCCC1` [TANDUTINIB], the Kd entry in assay [8], in assay [9], in assay [6], in assay [10], in assay [2] and in [3] was “Not Active” each time. In addition, the Kd entry in assay [11] is reported as “Not Active”.
